# Measured values as given in the supplement of paper PMC10307832.
# Legend:
# Experiment in all cases: relative viability (nuclei count vs DMSO), 5 days (fraction); higher = more cells survive
# BAY61-3606 + OSI-027 = compound: COC1=C(C=C(C=C1)C2=CC3=NC=CN3C(=N2)NC4=C(C=CC=N4)C(=O)N)OC [BAY61-3606] + COc1cccc2cc(-c3nc([C@H]4CC[C@H](C(=O)O)CC4)n4ncnc(N)c34)[nH]c12 [OSI-027] (partner 0.5 µM)
# Outline: (§1)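 Lung cancer cell lines in 1536-well plates were dosed by pin tool the day after seeding, either with one drug alone or with a fixed anchor-drug dose plus five library-drug doses (not always all listed) in √10 steps. After 5 days, cells were fixed and their nuclei stained in one step (final 0.05% Triton X-100, 1% formaldehyde, 1 ug/ml Hoechst), then counted on 4× images. Relative viability is the nuclei count in treated wells divided by that in vehicle wells. Values are medians of duplicate plates.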
# BAY61-3606 + Phenformin = compound: COC1=C(C=C(C=C1)C2=CC3=NC=CN3C(=N2)NC4=C(C=CC=N4)C(=O)N)OC [BAY61-3606] + N=C(N)NC(=N)NCCc1ccccc1 [Phenformin] (partner 250 µM)
# Outline: as §1
# BAY61-3606 + Linsitinib = compound: COC1=C(C=C(C=C1)C2=CC3=NC=CN3C(=N2)NC4=C(C=CC=N4)C(=O)N)OC [BAY61-3606] + C[C@]1(O)C[C@@H](c2nc(-c3ccc4ccc(-c5ccccc5)nc4c3)c3c(N)nccn32)C1 [Linsitinib] (partner 1 µM)
# Outline: as §1
# Doxorubicin + Luminespib = compound: COc1cccc2c1C(=O)c1c(O)c3c(c(O)c1C2=O)C[C@@](O)(C(=O)CO)C[C@@H]3O[C@H]1C[C@H](N)[C@H](O)[C@H](C)O1 [Doxorubicin] + CCNC(=O)c1noc(-c2cc(C(C)C)c(O)cc2O)c1-c1ccc(CN2CCOCC2)cc1 [Luminespib] (partner 0.01 µM)
# Outline: as §1
Cell Line,relative viability (BAY61-3606 + OSI-027; first compound 0.02 µM),relative viability (BAY61-3606 + OSI-027; first compound 0.06325 µM),relative viability (BAY61-3606 + OSI-027; first compound 0.2 µM),relative viability (BAY61-3606 + OSI-027; first compound 0.6325 µM),relative viability (BAY61-3606 + OSI-027; first compound 2 µM),relative viability (BAY61-3606 + Phenformin; first compound 0.02 µM),relative viability (BAY61-3606 + Phenformin; first compound 0.06325 µM),relative viability (BAY61-3606 + Phenformin; first compound 0.2 µM),relative viability (BAY61-3606 + Phenformin; first compound 0.6325 µM),relative viability (BAY61-3606 + Phenformin; first compound 2 µM),relative viability (BAY61-3606 + Linsitinib; first compound 0.02 µM),relative viability (BAY61-3606 + Linsitinib; first compound 0.06325 µM),relative viability (BAY61-3606 + Linsitinib; first compound 0.2 µM),relative viability (BAY61-3606 + Linsitinib; first compound 0.6325 µM),relative viability (BAY61-3606 + Linsitinib; first compound 2 µM),relative viability (Doxorubicin + Luminespib; first compound 0.001 µM),relative viability (Doxorubicin + Luminespib; first compound 0.003162 µM),relative viability (Doxorubicin + Luminespib; first compound 0.01 µM),relative viability (Doxorubicin + Luminespib; first compound 0.03162 µM),relative viability (Doxorubicin + Luminespib; first compound 0.1 µM)
HCC-78,0.411,0.393,0.404,0.351,0.427,0.769,0.719,0.688,0.848,0.915,0.742,0.456,0.598,0.535,0.459,–,–,–,–,–
HOP-62,0.859,0.838,0.774,0.786,0.714,0.629,0.645,0.635,0.667,0.534,1.11,–,0.961,1.11,0.713,0.906,0.942,0.896,0.958,0.931
NCI-H1623,0.417,0.427,0.504,0.418,0.412,0.58,0.522,0.588,0.58,0.588,–,–,–,–,–,0.394,0.478,0.508,0.374,0.487
NCI-H3122,1.02,0.922,0.891,1.27,0.847,0.418,0.308,0.386,0.42,0.384,1.08,1.08,0.974,0.924,0.918,0.0793,0.117,0.102,0.0975,0.0943
NCI-H1666,0.817,0.84,0.824,0.894,0.841,0.544,0.538,0.524,0.531,0.491,0.954,–,0.76,0.954,0.831,1.01,0.868,0.735,0.442,0.411
HARA,0.554,0.463,0.513,0.536,0.311,0.433,0.35,0.432,0.494,0.369,1.03,1.01,0.972,1.06,0.931,0.644,1.1,0.696,0.641,0.325
NCI-H1651,0.702,0.627,0.664,0.637,0.499,0.332,0.311,0.325,0.279,0.302,0.908,0.909,0.91,1.12,0.823,0.749,0.954,0.66,0.305,0.216
NCI-H1395,0.721,0.581,0.601,0.635,0.629,0.459,0.371,0.444,0.469,0.414,1.39,0.989,1.1,1.1,0.888,0.674,0.765,0.476,0.697,0.648
SK-LU-1,0.357,0.366,0.317,0.285,0.227,0.563,0.451,0.569,0.506,0.284,1.13,1.21,0.987,0.984,0.482,0.204,0.215,0.249,0.203,0.165
